Test results reported in paper PMC4212957, “The serodominant secreted effector protein of Salmonella, SseB, is a strong CD4 antigen containing an immunodominant epitope presented by diverse HLA class II alleles” (Immunology, 2014).

How the values were obtained:
PBMCs = experiment: Human IFN-γ ELISpot; type: cell-based; settings: 50 μg/ml peptide, 2 × 10^5 PBMCs, 24 hr; both cohorts; positive if > 2 SD above no-peptide/protein control
Method: CD4 T cell responses to SseB were analysed in peripheral blood mononuclear cell (PBMC) samples from healthy control donors with no reported clinical history of Salmonella infection and from donors who had been experimentally challenged with S. Typhi 12 months previously as described elsewhere.[28] Healthy control blood samples were collected with informed consent, under the approval of Ethics REC reference number 08/H0707/173. The S. Typhi challenge participants were recruited by the Oxford Vaccine Group, University of Oxford and the study was performed at the Centre for Clinical Vaccinology and Tropical Medicine, Oxford. Ethics approval was obtained from the NRES Committee South Central – Oxford A (11/SC/0302). Written, informed consent was provided by all participants. A pre-determined bacterial dose (10^4 colony-forming units) of challenge agent (Quailes strain) was delivered by oral ingestion suspended in a sodium bicarbonate solution.[28] Study exclusion criteria included previous typhoid vaccination, residence in a typhoid endemic country for over 6 months and known diagnosis of a probably or confirmed typhoid infection. Blood samples were collected and PBMCs were purified by Lymphoprep density gradient separation.
Human IFN-γ ELISpot assays were run using reagents from Mabtech (Stockholm, Sweden). Briefly, 2 × 10^5 thawed PBMCs were incubated in pre-coated human IFN-γ ELISpot plates, in triplicate, with 50 μg/ml of SseB peptide or recombinant protein (25 μg/ml) in RPMI-1640 medium containing 2 mM L-glutamine, 50 U/ml penicillin G, 50 μg/ml streptomycin sulphate and 10% fetal calf serum. […] Developed plates were left to dry before spot counting using an AID ELISpot reader (Autoimmun Diagnostika GMBH, Straßberg, Germany). […] To better define HLA restriction, human donor ELISpot responses were also analysed in the presence of HLA class II blocking monoclonal antibodies at a final concentration of 25 μg/ml: L243 (anti-HLA-DRα), SPVL-3 (anti-HLA-DQ), B7/21 (anti-HLA-DP) and control mouse IgG. […]

[1] = system: draining lymph node cells of HLA-DR1 transgenic mice; experiment: Murine IFN-γ ELISpot, HLA-DR1 transgenic mice primed with SseB; settings: mouse, in vivo
Description: Mice transgenic for HLA-DR1 (that is, HLA-DRA1*0101/HLA-DRB1*0101) and HLA-DR4 (that is, HLA-DRA1*0101/HLA-DRB1*0401)[24]–[26] were bred and housed in the Centre for Biological Services at the Hammersmith campus, Imperial College London, UK, in accordance with Home Office regulations and College ethics review. Both transgenic lines are maintained on a C57BL/6 background as homozygotes for knockout of murine MHC Class II H2-Aβ.[27]
HLA-DR1 or HLA-DR4 transgenic mice were primed, by subcutaneous injection into the footpad, with 25 μg of recombinant SseB protein administered as a 1 : 1 emulsion with TiterMax® Gold (CytRx Corporation, Los Angeles, CA). Ten days after priming, popliteal draining lymph nodes were harvested and stimulated, in triplicate, at 2 × 10^5 cells per well with 25 μg of SseB peptide or recombinant protein in pre-coated murine IFN-γ ELISpot plates (2BScientific, Upper Heyford, Oxfordshire, UK). Culture medium was RPMI-1640 containing 2 mM L-glutamine, 50 U/ml penicillin G, 50 μg/ml streptomycin sulphate, 50 μM β-mercaptoethanol and 10% fetal calf serum. Cells were cultured at 37° and in 5% CO2 for 72 hr before assay development using a biotinylated anti-IFN-γ antibody, a horseradish peroxidase detection antibody and TMB substrate (2BScientific). Developed plates were left to dry before spot counting using an AID ELISpot reader (Autoimmun Diagnostika GMBH). Positive epitopes for a given transgenic line were defined as those where more than half of assayed animals gave a greater number of spot-forming cells than 2 SD over the mean of the no protein/peptide control.
Fig 1 Definition of HLA-DR specific T-cell epitopes in DR1 and DR4 transgenic mice. (a) HLA-DR1 (n = 5) and (b) HLA-DR4 (n = 6) mice were footpad primed with ssEB protein in combination with TiterMax® Gold adjuvant. Draining lymph node (DLN) cells were assayed by ELISpot at day 10 for interferon-γ (IFN-γ) T-cell responses to ssEB peptides and protein. A peptide was defined as containing a T-cell epitope for DR1 or DR4 HLA molecules if more than half of the mice assayed gave a greater number of spot-forming cells than 2 SD over the mean of the no peptide/protein control. The 2 SD value for each transgenic line is shown by a dotted line.

HLA-DRB1*11:01 = HLA-DRB1*11:01 (Homo sapiens, UniProt P01903+P01911, A100R/A169T/A87E/I96F/K41T/L162R/M171V/P40S/Q125H/Q178H/Q39Y/Q99D/R42S/S66Y/T262R/V115G/W38E); settings: competitive ELISA; ratio IC50 of peptide / IC50 of reference peptide HA 306–318; lower = higher affinity; ratio 20 or less high, 20–100 moderate; three independent experiments
HLA-DRB1*11:01, sequence (P01903 26-254, other chains not shown): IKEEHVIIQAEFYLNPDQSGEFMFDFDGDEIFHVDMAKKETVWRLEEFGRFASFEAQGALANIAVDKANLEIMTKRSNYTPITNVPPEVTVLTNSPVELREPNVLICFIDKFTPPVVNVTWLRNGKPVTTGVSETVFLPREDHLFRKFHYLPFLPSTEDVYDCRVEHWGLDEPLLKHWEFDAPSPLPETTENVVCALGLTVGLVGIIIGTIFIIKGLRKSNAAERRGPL

2: SseB overlapping library peptide, residues 11–30 (QNPIVFKNSFGVSNADTGSQ) [Peptide 2]
human CD4 T-cell IFN-γ ELISpot response to peptide (PBMCs): largest and most common peptide responses | IFN-γ ELISpot recall response / CD4 epitope in HLA-DR1 transgenic mice [1]: carry HLA-DR1 restricted immunodominant CD4 epitopes | Relative binding affinity of peptide to HLA-DR molecules DRB1*1101 (HLA-DRB1*11:01): > 278

11: SseB overlapping library peptide, residues 101–120 (EDVIKYMRDNGILIDGMTID) [Peptide 11]
human CD4 T-cell IFN-γ ELISpot response to peptide (PBMCs): largest and most common peptide responses | IFN-γ ELISpot recall response / CD4 epitope in HLA-DR1 transgenic mice [1]: carry HLA-DR1 restricted immunodominant CD4 epitopes | Relative binding affinity of peptide to HLA-DR molecules DRB1*1101 (HLA-DRB1*11:01): > 278

AVLTQLTGLISKWGEISSMIAQKTYS [Peptide 18]
human CD4 T-cell IFN-γ ELISpot response to peptide (PBMCs): less frequent among the epitopes recognized | IFN-γ ELISpot recall response / CD4 epitope in HLA-DR1 transgenic mice [1]: carry HLA-DR1 restricted immunodominant CD4 epitopes | Relative binding affinity of peptide to HLA-DR molecules DRB1*1101 (HLA-DRB1*11:01): 7
